Experiments:
rmMIF = biological target: T1, rmMIF (Mus musculus, UniProt P34884); test: dopachrome methyl ester tautomerase assay, OD475 nm; type: biochemical; conditions: 83.3 nM protein preincubated 1 h at 37 °C with 10 µM ISO-1; pH 6.0, 25 °C
T1 construct: gene Mif; commercial recombinant (R&D systems); trimer

Q586B2 = biological target: T2, Q586B2 (Trypanosoma brucei, UniProt Q586B2); test: as above; type: biochemical; conditions: 83.3 nM protein; 50 mM potassium phosphate, 1 mM EDTA, pH 6.0, 25 °C
T2 construct: gene Tb06.4F7.140; full length, 115 aa, 13 kDa; N-terminal His6- and FLAG-tag (removable); codon-optimized, E. coli WK6
T2 sequence (Q586B2 entry or part of it): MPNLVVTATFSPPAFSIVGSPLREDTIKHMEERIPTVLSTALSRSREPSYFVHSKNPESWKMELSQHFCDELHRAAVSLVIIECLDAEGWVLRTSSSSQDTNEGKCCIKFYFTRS

T1 sequence (P34884 2-115): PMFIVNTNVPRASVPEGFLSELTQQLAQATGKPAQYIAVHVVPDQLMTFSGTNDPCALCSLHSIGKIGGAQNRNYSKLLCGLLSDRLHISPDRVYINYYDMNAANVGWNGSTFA

SMILES | % tautomerase activity with 10 μM ISO-1 (rmMIF) | % tautomerase activity of rmMIF (Q586B2)
COC(=O)CC1CC(c2ccc(O)cc2)=NO1 (centres unmarked) [ISO-1] | contrast to MIF, the Q586B2 tautomerase activity was not inhibited by the small molecule ISO-1 | 
COC(=O)[C@@H]1CC2=CC(=O)C(=O)C=C2N1 [dopachrome methyl ester] |  | Q586B2 indeed exhibited a moderate tautomerase activity
